Results from patent publication US10413559B2, “Method for treating demyelinating disease” (OCHANOMIZU UNIVERSITY, priority 2013, dated 2019).

Key:
[1] = system: demyelination model mice (0.2% cuprizone), corpus callosum; assay: Histological staining (Black Gold II) of corpus callosum and evaluation of demyelination (Example 2); assay type: in vivo, C57BL/6j mice; settings: intraperitoneal 1.6 mg/kg/day for 5 weeks, FIG. 3, FIG. 4
Text: 10-week-old male C57BL/6j mice (Tokyo Laboratory Animals Science Co., Ltd., Tokyo, Japan) were fed by the discretionary intake of a mash feed (CLEA Japan, Inc.) that contained 0.2% cuprizone (biscyclohexanone oxalyl hydrazone; Merck KGaA, Darmstadt, Germany) for 5 weeks until demyelination progressed most, so as to produce demyelination model mice involving demyelination caused by oligodendrocyte-specific cell death. To obtain tissues to be used for histological analysis, a mouse was subjected to perfusion fixation through the heart with 4% paraformaldehyde, and the resulting brain tissues were then excised from the mouse. Thereafter, the tissues were immobilized and infiltrated with 30% sucrose. Thereafter, a frozen tissue block was prepared and was then sliced in a cryostat. The cPA used in the experiment was the same cPA (16:0) as that used in Example 1, and the carba-cPA was 2 ccPA (16:1). The cPA and 2 ccPA were chemically purified (Biochimica et Biophysica Acta, Emi Nozaki 2011), and were then dissolved in a 0.9% saline. […] For the analysis of the level of myelin, using Image J 1.46r software, the stained level in the corpus callosum area was measured, and the demyelination level was then evaluated, while setting the control as 100%.

[2] = system: demyelination model mice (0.2% cuprizone), corpus callosum; assay: Electron microscope observation of myelin structure in corpus callosum; assay type: in vivo, C57BL/6j mice; settings: intraperitoneal 1.6 mg/kg/day for 5 weeks, FIG. 5
Text: 10-week-old male C57BL/6j mice (Tokyo Laboratory Animals Science Co., Ltd., Tokyo, Japan) were fed by the discretionary intake of a mash feed (CLEA Japan, Inc.) that contained 0.2% cuprizone (biscyclohexanone oxalyl hydrazone; Merck KGaA, Darmstadt, Germany) for 5 weeks until demyelination progressed most, so as to produce demyelination model mice involving demyelination caused by oligodendrocyte-specific cell death.
The cPA used in the experiment was the same cPA (16:0) as that used in Example 1, and the carba-cPA was 2 ccPA (16:1). The cPA and 2 ccPA were chemically purified (Biochimica et Biophysica Acta, Emi Nozaki 2011), and were then dissolved in a 0.9% saline. The cPA and 2 ccPA were continuously administered to mice via intraperitoneal administration for 5 weeks (1.6 mg/kg/day), at the same time with administration of cuprizone. Control mice were fed with a normal mash feed, and a normal saline was continuously administered to the control mice via intraperitoneal administration for 5 weeks.
Five weeks after administration of cuprizone, mice were subjected to perfusion fixation with 4% paraformaldehyde, and the brain was then collected from each mouse. Thereafter, corpus callosum tissues were removed from the brain, were then pre-fixed with 2.5% glutaraldehyde fixative, and were then washed with a 0.1 M cacodylate buffer. […]

SMILES: CCCCCCCCCCCCCCCC(=O)OCC1COP(=O)(O)O1 (centres unmarked) [cPA]
- demyelination level in corpus callosum (Black Gold II staining) [1]: demyelination is suppressed
- demyelination by electron microscope observation of myelin structure [2]: demyelination is suppressed
